In patent US20230138851A1, “NOVEL ALKYNE DERIVATIVES” (CARNA BIOSCIENCES, INC., priority 2020, published 2023):

Tests used:
Type in all cases: biochemical
DYRK1A = molecular target: T1, DYRK1A (Homo sapiens, UniProt Q13627); assay: Inhibition test on activity of DYRK family, mobility shift assay (MSA), DYRK1A; conditions: ATP 100 μM, FITC-labeled DYRKtide peptide substrate, room temperature 1 hour; for IC50: read-out: Inhibitory Activity 1a (IC50 against DYRK1A)
T1 construct: purchased Carna Biosciences, Inc. 04-130
Method: (§1) [Inhibition Test on Activity of DYRK Family (DYRK1A, DYRK1B, DYRK2, and […])]
(§2) (Method for Measuring Kinase Activity)
(§3) The kinase activity was measured by mobility shift assay (MSA) method using QuickScout Screening Assist™ MSA (commercially available kit manufactured by Carna Biosciences, Inc.). The substrate of the kinase reaction used was an FITC-labeled DYRKtide peptide included in the kit. An assay buffer [20 mM HEPES, 0.01% Triton X-100™, 2 mM dithiothreitol, pH 7.5] was used to create a substrate mixture solution with a substrate (4 μM), MgCl2 (20 mM), and ATP (DYRK1A: 100 μM; DYRK1B: 200 μM; DYRK2: 40 μM; and DYRK3: 20 μM). In addition, kinases (DYRK1A: manufactured by Carna Biosciences, Inc., Cat. No. 04-130; DYRK1B: manufactured by Carna Biosciences, Inc., Cat. No. 04-131; DYRK2; manufactured by Carna Biosciences, Inc., Cat. No. 04-132; and DYRK3; manufactured by Carna Biosciences, Inc., Cat. No. 04-133) were diluted with the assay buffer to prepare enzyme solutions (DYRK1A: 0.2 ng/μL; DYRK1B: 0.08 ng/μL; DYRK2: 0.04 ng/μL; and DYRK3: 0.25 ng/μL). The 10 mM solution of the test compound in DMSO was further diluted with DMSO to 10 levels of the concentration (0.00003 mM, 0.0001 mM, 0.0003 mM, 0.001 mM, 0.003 mM, 0.01 mM, 0.03 mM, 0.1 mM, 0.3 mM, and 1 mM), each of which was subjected to 25-fold dilution with the assay buffer to obtain a drug solution (4% DMSO solution). 5 μL of the drug solution or a control solution (4% DMSO-assay buffer), 5 μL of the substrate mixture solution, and 10 μL of the enzyme solution were mixed in the wells of a polypropylene 384-well plate and allowed to react at room temperature for 1 hour, and then the reaction was quenched by adding 60 μL of the termination buffer included in the kit. Subsequently, the quantities of the substrates (S) and the phosphorylated substrate (P) in the reaction solution were measured using LabChip EZ Reader II system (manufactured by Caliper Life Sciences) according to the protocol of the assay kit.
(§4) (Method for Evaluating Inhibitory Activity)
(§5) The heights of the peaks of the “substrate” and the “phosphorylated substrate” were expressed as S and P, respectively, and a blank containing the assay buffer instead of the enzyme solution was also measured.
(§6) The inhibition rate (%) of the test compound was calculated according to the following equation:
(§7) Inhibition rate (%)=(1−(C−A)/(B−A))×100
(§8) wherein, A, B, and C represent P/(P+S) of the blank well, P/(P+S) of the control solution well, and P/(P+S) of the compound-containing well, respectively.
(§9) The IC50 value was calculated via a regression analysis of the inhibition rate and the test compound concentration (logarithmic value).
(§10) The inhibiting activities of representative compounds of the present invention are shown against DYRK1A, DYRK1B, DYRK2, and DYRK3 in Tables 7 and 8. The kinase activity inhibitory effect was indicated with the mark *** at an IC50 value of less than 0.01 μM; the mark ** at 0.01 μM or more and less than 0.1 μM; the mark * at 0.1 μM or more and less than 1 μM; and the mark — at 1 μM or more (N.D. indicates not measured).

DYRK2 = molecular target: T2, DYRK2 (Homo sapiens, UniProt Q92630); assay: Inhibition test on activity of DYRK family, mobility shift assay (MSA), DYRK2; conditions: ATP 40 μM, FITC-labeled DYRKtide peptide substrate, room temperature 1 hour; for IC50: read-out: Inhibitory Activity 2 (IC50 against DYRK2)
T2 construct: purchased Carna Biosciences, Inc. 04-132
T2 sequence (Q92630 1-601): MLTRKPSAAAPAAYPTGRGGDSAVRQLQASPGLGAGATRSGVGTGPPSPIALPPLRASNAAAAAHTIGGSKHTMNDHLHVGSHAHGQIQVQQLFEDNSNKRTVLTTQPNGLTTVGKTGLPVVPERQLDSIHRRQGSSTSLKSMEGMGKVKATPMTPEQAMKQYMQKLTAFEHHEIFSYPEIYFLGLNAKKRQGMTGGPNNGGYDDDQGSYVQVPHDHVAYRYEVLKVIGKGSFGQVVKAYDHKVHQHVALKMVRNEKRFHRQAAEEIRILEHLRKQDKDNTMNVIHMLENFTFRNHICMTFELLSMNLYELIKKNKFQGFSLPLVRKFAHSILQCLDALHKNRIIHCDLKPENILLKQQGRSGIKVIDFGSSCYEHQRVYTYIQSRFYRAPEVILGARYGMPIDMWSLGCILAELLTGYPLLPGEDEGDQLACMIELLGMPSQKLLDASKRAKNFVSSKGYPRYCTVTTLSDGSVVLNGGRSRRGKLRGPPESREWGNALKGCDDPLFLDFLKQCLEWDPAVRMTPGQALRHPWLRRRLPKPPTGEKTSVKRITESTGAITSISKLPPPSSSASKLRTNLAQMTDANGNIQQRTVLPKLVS
Method: as §1, §2, §3, §4, §5, §6, §7, §8, §9, §10

DYRK3 = molecular target: T3, DYRK3 (Homo sapiens, UniProt O43781); assay: Inhibition test on activity of DYRK family, mobility shift assay (MSA), DYRK3; conditions: ATP 20 μM, FITC-labeled DYRKtide peptide substrate, room temperature 1 hour; for IC50: read-out: Inhibitory Activity 3 (IC50 against DYRK3)
T3 construct: purchased Carna Biosciences, Inc. 04-133
T3 sequence (O43781 1-588): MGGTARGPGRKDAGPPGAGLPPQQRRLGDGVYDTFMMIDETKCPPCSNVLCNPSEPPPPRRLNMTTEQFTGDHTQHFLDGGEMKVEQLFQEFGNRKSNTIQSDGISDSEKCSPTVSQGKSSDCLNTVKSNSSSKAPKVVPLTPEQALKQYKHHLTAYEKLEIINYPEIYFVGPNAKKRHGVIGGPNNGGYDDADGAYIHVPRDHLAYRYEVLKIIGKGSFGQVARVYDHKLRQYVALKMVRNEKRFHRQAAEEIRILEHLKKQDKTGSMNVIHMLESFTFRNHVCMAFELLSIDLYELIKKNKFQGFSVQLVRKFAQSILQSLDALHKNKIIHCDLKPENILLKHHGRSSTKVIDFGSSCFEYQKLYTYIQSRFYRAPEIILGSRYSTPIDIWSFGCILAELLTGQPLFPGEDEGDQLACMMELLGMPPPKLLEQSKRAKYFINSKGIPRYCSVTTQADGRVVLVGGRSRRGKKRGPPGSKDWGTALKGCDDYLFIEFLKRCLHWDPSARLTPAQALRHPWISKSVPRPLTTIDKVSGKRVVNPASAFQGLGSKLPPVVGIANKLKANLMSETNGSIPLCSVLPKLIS
Method: as §1, §2, §3, §4, §5, §6, §7, §8, §9, §10

Compound | Inhibitory Activity 1a (IC50 against DYRK1A) (DYRK1A) | Inhibitory Activity 2 (IC50 against DYRK2) (DYRK2) | Inhibitory Activity 3 (IC50 against DYRK3) (DYRK3) | IC50 (DYRK2) | IC50 (DYRK3) | IC50 (DYRK1A)
CC#CC1CNC(=O)N1c1nc2c3c(ccc2s1)OCC3 (single isomer, unassigned) [Example 9, 1-(7,8-dihydrobenzofuro[4,5-d]thiazol-2-yl)-5-(prop-1-yn-1-yl)imidazolidin-2-one] | * * * | * * | * * | – | – | –
O=C1NCC(C#CCO)N1c1nc2c3c(ccc2s1)OCC3 (racemic) [Example 19, (RS)-1-(7,8-dihydrobenzofuro[4,5-d]thiazol-2-yl)-5-(3-hydroxyprop-1-yn-1-yl)imidazolidin-2-one] | * * * | – | – | 100 to 1000 nM | 100 to 1000 nM | –
CC#CC1CNC(=O)N1c1nc2c(ccc3nccn32)s1 (racemic) [Example 6, (RS)-1-(imidazo[1,2-a]thiazolo[5,4-e]pyridin-2-yl)-5-(prop-1-yn-1-yl)imidazolidin-2-one] | * * * | – | – | 100 to 1000 nM | 100 to 1000 nM | –
CC#C[C@@H]1[C@@H](C)NC(=O)N1c1nc2c3c(ccc2s1)OCC3 [Example 16, (4R,5R)-1-(7,8-dihydrobenzofuro[4,5-d]thiazol-2-yl)-4-methyl-5-(prop-1-yn-1-yl)imidazolidin-2-one] | * * * | – | – | ≥ 1000 nM | 100 to 1000 nM | –
CC#CC1CNC(=O)N1c1nc2c(ccc3nc[nH]c32)s1 (racemic) [Example 35, (RS)-1-(8H-imidazo[4′,5′:5,6]benz[1,2-d]thiazol-2-yl)-5-(prop-1-yn-1-yl)imidazolidin-2-one] | ** * | – | – | 100 to 1000 nM | 100 to 1000 nM | –
CC#C[C@@H]1[C@H](C)NC(=O)N1c1nc2c3c(ccc2s1)OCO3 [Example 23, (4S,5R)-1-([1,3]dioxolo[4′,5′:5,6]benzo[1,2-d]thiazol-7-yl)-4-methyl-5-(prop-1-yn-1-yl)imidazolidin-2-one] | * * * | – | – | 100 to 1000 nM | 100 to 1000 nM | –
CC#CC1CNC(=O)N1c1nc2c3c(ccc2s1)OCC(=O)N3C (racemic) [Example 46, (RS)-9-methyl-2-[2-oxo-5-(prop-1-yn-1-yl)imidazolidin-1-yl]-7H-thiazolo[4′,5′:3,4]benz[1,2-b][1,4]oxazin-8(9H)-one] | * * | – | – | ≥ 1000 nM | 100 to 1000 nM | –

The next lines start with the values.

Inhibitory Activity 1a (IC50 against DYRK1A) (DYRK1A) | Inhibitory Activity 2 (IC50 against DYRK2) (DYRK2) | Inhibitory Activity 3 (IC50 against DYRK3) (DYRK3) | IC50 (DYRK2) | IC50 (DYRK3) | IC50 (DYRK1A) | Compound
* * * | – | * * | 100 to 1000 nM | – | – | [2H]C1([2H])Oc2ccc3sc(N4C(=O)NC[C@H]4C#CC)nc3c2O1 [Example 62, (R)-1-([1,3]dioxolo[4′,5′:5,6]benz[1,2-d]thiazol-7-yl-2,2-d2)-5-(prop-1-yn-1-yl)imidazolidin-2-one]
* * * | – | – | 100 to 1000 nM | 100 to 1000 nM | – | CC#C[C@@H]1[C@H](COC)NC(=O)N1c1nc2c3c(ccc2s1)OCC3 (single isomer, unassigned) [Example 74, cis-1-(7,8-dihydrobenzofuro[4,5-d]thiazol-2-yl)-4-(methoxymethyl)-5-(prop-1-yn-1-yl)imidazolidin-2-one]
* * * | – | – | ≥ 1000 nM | 100 to 1000 nM | – | CC#CC1CNC(=O)N1c1nc2c3c(ccc2s1)OCC(C)N3C (single isomer, unassigned) [Example 49, 1-(-8,9-dimethyl-8,9-dihydro-7H-thiazolo[4′,5′:3,4]benz[1,2-b][1,4]oxazin-2-yl)-5-(prop-1-yn-1-yl)imidazolidin-2-one]
– | – | – | ≥ 1000 nM | ≥ 1000 nM | 100 to 1000 nM | CC#C[C@H]1[C@H](CN(C)C)NC(=O)N1c1nc2c3c(ccc2s1)OCC3 (single isomer, unassigned) [Example 70, trans-1-(7,8-dihydrobenzofuro[4,5-d]thiazol-2-yl)-4-[(dimethylamino)methyl]-5-(prop-1-yn-1-yl)imidazolidin-2-one]
* * * | – | * * | 100 to 1000 nM | – | – | CC#CC1C(CN)NC(=O)N1c1nc2c3c(ccc2s1)OCC3 (stereo not drawn) [Example 63, 4-(aminomethyl)-1-(7,8-dihydrobenzofuro[4,5-d]thiazol-2-yl)-5-(prop-1-yn-1-yl)imidazolidin-2-one]
* * * | – | – | 100 to 1000 nM | 100 to 1000 nM | – | CC#C[C@H]1[C@H](CO)NC(=O)N1c1nc2c3c(ccc2s1)OCCO3 (single isomer, unassigned) [Example 65, trans-1-(7,8-dihydro-[1,4]dioxino[2′,3′:5,6]benz[1,2-d]thiazol-2-yl)-4-(hydroxymethyl)-5-(prop-1-yn-1-yl)imidazolidin-2-one]
– | – | – | ≥ 1000 nM | ≥ 1000 nM | 100 to 1000 nM | CC#C[C@H]1[C@H](CC)NC(=O)N1c1nc2c3c(ccc2s1)OCC3 (single isomer, unassigned) [Example 72, trans-1-(7,8-dihydrobenzofuro[4,5-d]thiazol-2-yl)-4-ethyl-5-(prop-1-yn-1-yl)imidazolidin-2-one]
– | * * | – | – | 100 to 1000 nM | < 10 nM | CC#C[C@H]1[C@H](CF)NC(=O)N1c1nc2c3c(ccc2s1)OCC3 (single isomer, unassigned) [Example 78, trans-1-(7,8-dihydrobenzofuro[4,5-d]thiazol-2-yl)-4-(fluoromethyl)-5-(prop-1-yn-1-yl)imidazolidin-2-one]
